The values that follow come from ChEMBL document CHEMBL1833865, “Oleanane-type triterpene saponins from the bark of Aralia elata and their NF-κB inhibition and PPAR activation signal pathway” (Bioorg Med Chem Lett, 2011).

Common to all, as to type: cell-based
For data set [1], the system named is HepG2. The data set can be described thus: Cytotoxicity against human HepG2 cells assessed as cell viability at 10 uM after 24 hrs by MTS assay. Particulars: hepg2, 24 h.
Data set [2] can be described thus: Inhibition of NF-kappaB activation expressed in TNFalpha-stimulated human HepG2 cells co-transfected with […] plasmid pretreated for 1 hr before TNFalpha challenge measured after 24 hrs by luciferase reporter gene assay. A general note: Reporter assays use an easily measured gene product as a stand-in for the process of interest.
Data set [3] deals with HepG2. The experiment in a line: Inhibition of NFkappaB activation expressed in human HepG2 cells assessed as reduction in TNF-alpha-induced iNOS mRNA expression preincubated 1 hr before TNFalpha challenge measured after 6 hrs by RT-PCR analysis.
Data set [4] concerns HepG2. The experiment in a line: Inhibition of NF-kappaB activation expressed in human HepG2 cells assessed as reduction in TNFalpha-induced COX2 mRNA expression preincubated 1 hr before TNFalpha challenge measured after 6 hrs by RT-PCR analysis.
Data set [5] addresses T1, Peroxisome proliferator-activated receptor alpha (Homo sapiens) (UniProt Q07869).
T1 sequence (whole entry): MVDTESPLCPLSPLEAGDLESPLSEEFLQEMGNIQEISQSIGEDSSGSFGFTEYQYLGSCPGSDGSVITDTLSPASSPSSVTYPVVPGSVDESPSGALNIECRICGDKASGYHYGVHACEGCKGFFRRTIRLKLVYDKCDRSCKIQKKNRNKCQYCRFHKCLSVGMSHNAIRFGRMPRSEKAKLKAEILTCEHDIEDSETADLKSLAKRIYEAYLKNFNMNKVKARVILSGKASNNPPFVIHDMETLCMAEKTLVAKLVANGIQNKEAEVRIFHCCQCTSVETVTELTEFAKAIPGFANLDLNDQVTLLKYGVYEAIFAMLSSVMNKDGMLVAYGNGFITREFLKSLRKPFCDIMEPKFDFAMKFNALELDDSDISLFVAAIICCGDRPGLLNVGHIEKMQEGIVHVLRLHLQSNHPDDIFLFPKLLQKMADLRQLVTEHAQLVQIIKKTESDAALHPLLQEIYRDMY
The experiment in a line: Transactivation of Gal4-fused PPARalpha ligand binding domain expressed in human HepG2 cells co-transfected with pFR-Luc and pRL-CMV at 0.1 to 10 uM after 20 hrs by dual-luciferase reporter gene assay.

Data set [6] deals with T2, Peroxisome proliferator-activated receptor delta (Homo sapiens) (UniProt Q03181).
T2 sequence (whole entry): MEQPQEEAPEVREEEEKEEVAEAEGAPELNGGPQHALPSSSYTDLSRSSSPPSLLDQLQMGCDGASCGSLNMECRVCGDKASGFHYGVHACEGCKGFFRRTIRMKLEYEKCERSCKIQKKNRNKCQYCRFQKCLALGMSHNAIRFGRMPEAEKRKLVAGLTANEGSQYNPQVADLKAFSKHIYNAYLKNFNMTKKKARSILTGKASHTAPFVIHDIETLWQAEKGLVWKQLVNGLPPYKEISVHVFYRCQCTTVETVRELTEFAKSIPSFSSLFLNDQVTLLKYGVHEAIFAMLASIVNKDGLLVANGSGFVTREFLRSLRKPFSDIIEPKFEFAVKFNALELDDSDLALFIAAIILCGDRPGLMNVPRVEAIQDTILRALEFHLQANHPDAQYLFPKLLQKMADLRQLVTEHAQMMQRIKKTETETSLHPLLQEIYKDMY
The experiment in a line: Transactivation of Gal4-fused PPARbeta/delta ligand binding domain expressed in human HepG2 cells co-transfected with pFRLuc and pRL-CMV at 0.1 to 10 uM after 20 hrs by dual-luciferase reporter gene assay.

Data set [7] has as its target T3, Peroxisome proliferator-activated receptor gamma (Homo sapiens) (UniProt P37231).
T3 sequence (whole entry): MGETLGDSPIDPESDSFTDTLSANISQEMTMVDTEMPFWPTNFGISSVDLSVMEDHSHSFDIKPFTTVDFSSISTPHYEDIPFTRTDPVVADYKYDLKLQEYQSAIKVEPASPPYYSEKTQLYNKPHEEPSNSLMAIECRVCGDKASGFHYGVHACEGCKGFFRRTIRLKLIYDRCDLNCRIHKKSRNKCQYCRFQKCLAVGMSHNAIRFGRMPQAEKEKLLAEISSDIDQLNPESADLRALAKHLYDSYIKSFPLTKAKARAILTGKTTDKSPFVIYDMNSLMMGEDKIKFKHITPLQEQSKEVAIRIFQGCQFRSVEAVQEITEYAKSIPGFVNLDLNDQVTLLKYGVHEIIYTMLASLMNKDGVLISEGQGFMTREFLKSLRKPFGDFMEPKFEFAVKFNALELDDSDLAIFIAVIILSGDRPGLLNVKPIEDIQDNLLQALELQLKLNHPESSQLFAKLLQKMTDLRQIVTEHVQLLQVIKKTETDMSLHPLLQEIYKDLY
The data set can be described thus: Transactivation of Gal4-fused PPARgamma ligand binding domain expressed in human HepG2 cells co-transfected with pFR-Luc and pRL-CMV at 0.1 to 10 uM after 20 hrs by dual-luciferase reporter gene assay.

Active and inactive are the calls of the source. The rule behind the calls is not given here.

The IC50 is the concentration needed to halve the response being measured. As for `CC1(C)CC[C@]2(C(=O)O[C@@H]3O[C@H](CO)[C@@H](O)[C@H](O)[C@H]3O)CC[C@]3(C)C(=CC[C@@H]4[C@@]5(C)CC[C@H](O[C@@H]6O[C@H](C(=O)O)[C@@H](O)[C@H](O[C@@H]7O[C@H](CO)[C@@H](O)[C@H](O)[C@H]7O)[C@H]6O[C@@H]6OC[C@H](O)[C@H](O)[C@H]6O)C(C)(C)[C@@H]5CC[C@]43C)[C@@H]2C1`, the Activity result in data set [1] was “Non-toxic”. Moreover, the IC50 in data set [2] stood at 9.5 µM. Moreover, the inhibition entry in data set [3] and in data set [4] was “Dose-dependent effect” each time. Moreover, the outcome in data set [5] and in data set [6] was inactive. In data set [7], the outcome was Active.
Take `COC(=O)[C@H]1O[C@@H](O[C@H]2CC[C@]3(C)[C@H]4CC=C5[C@@H]6CC(C)(C)CC[C@]6(C(=O)O[C@@H]6O[C@H](CO)[C@@H](O)[C@H](O)[C@H]6O)CC[C@@]5(C)[C@]4(C)CC[C@H]3C2(C)C)[C@H](O[C@@H]2OC[C@H](O)[C@H](O)[C@H]2O)[C@@H](O[C@@H]2O[C@H](CO)[C@@H](O)[C@H](O)[C@H]2O)[C@@H]1O`: in data set [1], the Activity entry is “Non-toxic”. Also, the result in data set [5] and in data set [6] was inactive. Besides, the outcome in data set [7] was Active.
Regarding `CC1(C)CC[C@]2(C(=O)O[C@@H]3O[C@H](CO)[C@@H](O)[C@H](O)[C@H]3O)CC[C@]3(C)C(=CC[C@@H]4[C@@]5(C)CC[C@H](O[C@@H]6O[C@H](C(=O)O)[C@@H](O[C@@H]7O[C@@H](CO)[C@H](O)[C@H]7O)[C@H](O)[C@H]6O[C@@H]6O[C@H](CO)[C@@H](O)[C@H](O)[C@H]6O)C(C)(C)[C@@H]5CC[C@]43C)[C@@H]2C1` [TARASAPONIN IV], in data set [1], the Activity entry is listed as “Non-toxic”.
The same measure, in the same setting: the result for `CC1(C)CC[C@]2(C(=O)O[C@@H]3O[C@H](CO)[C@@H](O)[C@H](O)[C@H]3O)CC[C@]3(C)C(=CC[C@@H]4[C@@]5(C)CC[C@H](O[C@@H]6O[C@H](C(=O)O)[C@@H](O[C@H]7O[C@@H](CO)[C@H](O)[C@H]7O)[C@H](O[C@@H]7O[C@H](CO)[C@@H](O)[C@H](O)[C@H]7O)[C@H]6O)C(C)(C)[C@@H]5CC[C@]43C)[C@@H]2C1` [STIPULEANOSIDE R2] reads “Non-toxic”.
On to `CC1(C)CC[C@]2(C(=O)O[C@@H]3O[C@H](CO[C@@H]4O[C@H](CO)[C@@H](O)[C@H](O)[C@H]4O)[C@@H](O)[C@H](O)[C@H]3O)CC[C@]3(C)C(=CC[C@@H]4[C@@]5(C)CC[C@H](O[C@@H]6O[C@H](C(=O)O)[C@@H](O[C@@H]7O[C@@H](CO)[C@H](O)[C@H]7O)[C@H](O)[C@H]6O[C@@H]6O[C@H](CO[C@@H]7O[C@H](CO)[C@@H](O)[C@H](O)[C@H]7O)[C@@H](O)[C@H](O)[C@H]6O)C(C)(C)[C@@H]5CC[C@]43C)[C@@H]2C1` [ELATOSIDE L], for which the Activity result in data set [1] is “Non-toxic”. In addition, the IC50 in data set [2] came out at 4.1 µM. Also, the inhibition entry in data set [3] and in data set [4] was “Dose-dependent effect” throughout.
`O=C(O)c1cc(/N=N/c2ccc(S(=O)(=O)Nc3ccccn3)cc2)ccc1O` [SULFASALAZINE]: the IC50 in data set [2] was determined as 0.9 µM.
With `CC1(C)CC[C@]2(C(=O)O[C@@H]3O[C@H](CO)[C@@H](O)[C@H](O)[C@H]3O)CC[C@]3(C)C(=CC[C@@H]4[C@@]5(C)CC[C@H](O[C@@H]6O[C@H](C(=O)O)[C@@H](O)[C@H](O[C@@H]7O[C@H](CO)[C@H](O)[C@H](O)[C@H]7O)[C@H]6O[C@@H]6O[C@H](CO)[C@H](O)[C@H](O)[C@H]6O)C(C)(C)[C@@H]5CC[C@]43C)[C@@H]2C1` [ELATOSIDE D], in data set [1], the Activity entry was “Non-toxic”. For the same molecule, the outcome in data set [5] and in data set [6] was inactive. Also, in data set [7], the result was Active.
